Reference: patent US9018208B2, “Heterocycles as potassium channel modulators” (Icagen Inc., priority 2007, dated 2015)

Each compound was assayed on SH-SY5Y M-currents (KCNQ2, KCNQ3 and KCNQ5) (assay: SH-SY5Y native cell line FLIPR assay (voltage-sensitive dye DiBAC)). Details: FLIPR assay, SH-SY5Y native cell line; Table 2; read-out: SH-SY5Y EC50.
Format: cell-based, mouse neuroblastoma, rat glioma hybrid cell line
Summary of the method: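 Response is peak DiBAC fluorescence change, normalised to the maximum from a positive control agent, sampled every 30 s over 25 min. Before compound addition, SH-SY5Y cells differentiated with PGE1 plus isomethylbutylxanthine were dye-loaded for 1 h in EBSS with […] DiBAC.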

`O=C(CC(F)(F)F)Nc1nc2ccc(F)cn2c1-c1cccc(C(F)(F)F)c1` [Compound 267, 3,3,3-trifluoro-N-(6-fluoro-3-(3-(trifluoromethyl)phenyl)imidazo[1,2-a]pyridin-2-yl)propanamide] and `O=C(CCC(F)(F)F)Nc1nc2ccc(F)cn2c1-c1cccc(C(F)(F)F)c1` [Compound 281, 4,4,4-trifluoro-N-(6-fluoro-3-(3-(trifluoromethyl)phenyl)imidazo[1,2-a]pyridin-2-yl)butanamide] fall in the same range of EC50: 500 to 3000 nM for the first, 500 to 3000 nM for the second.

`O=C(CC1CCCC1)Nc1nc2ccc(F)cn2c1-c1cccc(C(F)(F)F)c1` [Compound 268, 2-cyclopentyl-N-(6-fluoro-3-(3-(trifluoromethyl)phenyl)imidazo[1,2-a]pyridin-2-yl)acetamide] and `O=C(CC1CCC1)Nc1nc2ccc(F)cn2c1-c1cccc(C(F)(F)F)c1` [Compound 270, 2-cyclobutyl-N-(6-fluoro-3-(3-(trifluoromethyl)phenyl)imidazo[1,2-a]pyridin-2-yl)acetamide] cannot be ordered by EC50: under 500 nM for the first, under 500 nM for the second.

`O=C(CC1CC1)Nc1nc2ccc(F)cn2c1-c1cccc(C(F)(F)F)c1` [Compound 269, 2-cyclopropyl-N-(6-fluoro-3-(3-(trifluoromethyl)phenyl)imidazo[1,2-a]pyridin-2-yl)acetamide] and `O=C(CCC1CC1)Nc1nc2ccc(F)cn2c1-c1cccc(C(F)(F)F)c1` [Compound 280, 3-cyclopropyl-N-(6-fluoro-3-(3-(trifluoromethyl)phenyl)imidazo[1,2-a]pyridin-2-yl)propanamide] fall in the same range of EC50: 500 to 3000 nM for the first, 500 to 3000 nM for the second.

`O=C(Cc1ccc(F)cc1)Nc1nc2ccc(Cl)nn2c1-c1ccc(C(F)(F)F)cc1` [Compound 272, N-(6-chloro-3-(4-(trifluoromethyl)phenyl)imidazo[1,2-b]pyridazin-2-yl)-2-(4-fluorophenyl)acetamide] and `O=C(Cc1ccc(C(F)(F)F)cc1)Nc1nc2ccc(F)cn2c1-c1cccc(Cl)c1` [Compound 299, N-(3-(3-chlorophenyl)-6-fluoroimidazo[1,2-a]pyridin-2-yl)-2-(4-(trifluoromethyl)phenyl)acetamide] fall in the same range of EC50: 500 to 3000 nM for the first, 500 to 3000 nM for the second.

First: Cc1ccc(-c2c(NC(=O)CC(C)(C)C)nc3ccc(F)cn23)cc1 [Compound 273, N-(6-fluoro-3-p-tolylimidazo[1,2-a]pyridin-2-yl)-3,3-dimethylbutanamide]
Second: CC(C)(C)CCC(=O)Nc1nc2ccc(F)cn2c1-c1cccc(C(F)(F)F)c1 [Compound 283, N-(6-fluoro-3-(3-(trifluoromethyl)phenyl)imidazo[1,2-a]pyridin-2-yl)-4,4-dimethylpentanamide]
The EC50 of the first is higher: 500 to 3000 nM for the first, under 500 nM for the second. The second is the more potent here.

First: O=C(CCC1CC1)Nc1nc2ccc(F)cn2c1-c1cccc(OC(F)(F)F)c1 [Compound 274, 3-cyclopropyl-N-(6-fluoro-3-(3-(trifluoromethoxy)phenyl)imidazo[1,2-a]pyridin-2-yl)propanamide]
Second: O=C(CCC(F)(F)F)Nc1nc2ccc(F)cn2c1-c1cccc(OC(F)(F)F)c1 [Compound 275, 4,4,4-trifluoro-N-(6-fluoro-3-(3-(trifluoromethoxy)phenyl)imidazo[1,2-a]pyridin-2-yl)butanamide]
The EC50 of the first is lower: under 500 nM for the first, 500 to 3000 nM for the second. The first is the more potent here.

`CC(CC(=O)Nc1nc2ccc(F)cn2c1-c1cccc(OC(F)(F)F)c1)C(F)(F)F` (stereo not shown) [Compound 276, 4,4,4-trifluoro-N-(6-fluoro-3-(3-(trifluoromethoxy)phenyl)imidazo[1,2-a]pyridin-2-yl)-3-methylbutanamide] and `CC(CC(=O)Nc1nc2ccc(F)cn2c1-c1cccc(C(F)(F)F)c1)C(F)(F)F` (stereo not shown) [Compound 282, 4,4,4-trifluoro-N-(6-fluoro-3-(3-(trifluoromethyl)phenyl)imidazo[1,2-a]pyridin-2-yl)-3-methylbutanamide] cannot be ordered by EC50: under 500 nM for the first, under 500 nM for the second.

`CC(C)(C)OCCC(=O)Nc1nc2ccc(F)cn2c1-c1cccc(OC(F)(F)F)c1` [Compound 277, 3-tert-butoxy-N-(6-fluoro-3-(3-(trifluoromethoxy)phenyl)imidazo[1,2-a]pyridin-2-yl)propanamide] and `CC(C)(C)CCC(=O)Nc1nc2ccc(F)cn2c1-c1cccc(OC(F)(F)F)c1` [Compound 279, N-(6-fluoro-3-(3-(trifluoromethoxy)phenyl)imidazo[1,2-a]pyridin-2-yl)-4,4-dimethylpentanamide] cannot be ordered by EC50: under 500 nM for the first, under 500 nM for the second.

First: CC(C)C(C)C(=O)Nc1nc2ccc(F)cn2c1-c1cccc(OC(F)(F)F)c1 (stereo not shown) [Compound 278, N-(6-fluoro-3-(3-(trifluoromethoxy)phenyl)imidazo[1,2-a]pyridin-2-yl)-2,3-dimethylbutanamide]
Second: CC(C)C(C)C(=O)Nc1nc2ccc(F)cn2c1-c1cccc(C(F)(F)F)c1 (stereo not shown) [Compound 288, N-(6-fluoro-3-(3-(trifluoromethyl)phenyl)imidazo[1,2-a]pyridin-2-yl)-2,3-dimethylbutanamide]
The EC50 of the first is lower: under 500 nM for the first, 500 to 3000 nM for the second.

`O=C(CC(F)(F)F)Nc1nc2ccc(F)cn2c1-c1cccc(Cl)c1` [Compound 284, N-(3-(3-chlorophenyl)-6-fluoroimidazo[1,2-a]pyridin-2-yl)-3,3,3-trifluoropropanamide] and `O=C(CCC(F)(F)F)Nc1nc2ccc(F)cn2c1-c1cccc(Cl)c1` [Compound 285, N-(3-(3-chlorophenyl)-6-fluoroimidazo[1,2-a]pyridin-2-yl)-4,4,4-trifluorobutanamide] fall in the same range of EC50: 500 to 3000 nM for the first, 500 to 3000 nM for the second.

`CC1(CC(=O)Nc2nc3ccc(F)cn3c2-c2cccc(Cl)c2)CCCC1` [Compound 286, N-(3-(3-chlorophenyl)-6-fluoroimidazo[1,2-a]pyridin-2-yl)-2-(1-methylcyclopentyl)acetamide] and `O=C(CC1CCCC1)Nc1nc2ccc(F)cn2c1-c1cccc(Cl)c1` [Compound 302, N-(3-(3-chlorophenyl)-6-fluoroimidazo[1,2-a]pyridin-2-yl)-2-cyclopentylacetamide] cannot be ordered by EC50: under 500 nM for the first, under 500 nM for the second.

Compared with `CC(C)(C)OCCC(=O)Nc1nc2ccc(F)cn2c1-c1cccc(C(F)(F)F)c1` [Compound 287, 3-tert-butoxy-N-(6-fluoro-3-(3-(trifluoromethyl)phenyl)imidazo[1,2-a]pyridin-2-yl)propanamide], `O=C(Nc1nc2ccc(F)cn2c1-c1cccc(C(F)(F)F)c1)C1CCCC1` [Compound 289, N-(6-fluoro-3-(3-(trifluoromethyl)phenyl)imidazo[1,2-a]pyridin-2-yl)cyclopentanecarboxamide] is lower in EC50: 500 to 3000 nM for the first, under 500 nM for the second. The second is the more potent here.

`O=C(Nc1nc2ccc(F)cn2c1-c1ccc(OC(F)(F)F)cc1)C1CCCC1` [Compound 290, N-(6-fluoro-3-(4-(trifluoromethoxy)phenyl)imidazo[1,2-a]pyridin-2-yl)cyclopentanecarboxamide] and `O=C(Nc1nc2ccc(F)cn2c1-c1ccc(OC(F)(F)F)cc1)C1CCCCCC1` [Compound 291, N-(6-fluoro-3-(4-(trifluoromethoxy)phenyl)imidazopyridin-2-yl)cycloheptanecarboxamide] cannot be ordered by EC50: under 500 nM for the first, under 500 nM for the second.

First: O=C(Nc1nc2ccc(F)cn2c1-c1ccc(OC(F)(F)F)cc1)C1Cc2ccccc2C1 [Compound 292, N-(6-fluoro-3-(4-(trifluoromethoxy)phenyl)imidazo[1,2-a]pyridin-2-yl)-2,3-dihydro-1H-indene-2-carboxamide]
Second: O=C(Cc1ccccc1)Nc1nc2ccc(F)cn2c1-c1ccc(OC(F)(F)F)c(F)c1 [Compound 295, N-(6-fluoro-3-(3-fluoro-4-(trifluoromethoxy)phenyl)imidazo[1,2-a]pyridin-2-yl)-2-phenylacetamide]
The EC50 of the first is higher: 500 to 3000 nM for the first, under 500 nM for the second. The second is the more potent here.

`O=C(Cc1ccc(F)cc1)Nc1nc2ccc(F)cn2c1-c1ccc(OC(F)(F)F)c(F)c1` [Compound 296, N-(6-fluoro-3-(3-fluoro-4-(trifluoromethoxy)phenyl)imidazo[1,2-a]pyridin-2-yl)-2-(4-fluorophenyl)acetamide] and `O=C(Cc1ccc(C(F)(F)F)cc1)Nc1nc2ccc(F)cn2c1-c1ccc(OC(F)(F)F)c(F)c1` [Compound 297, N-(6-fluoro-3-(3-fluoro-4-(trifluoromethoxy)phenyl)imidazo[1,2-a]pyridin-2-yl)-2-(4-(trifluoromethyl)phenyl)acetamide] cannot be ordered by EC50: under 500 nM for the first, under 500 nM for the second.

`O=C(Cc1cccc(Cl)c1)Nc1nc2ccc(F)cn2c1-c1ccc(OC(F)(F)F)c(F)c1` [Compound 298, 2-(3-chlorophenyl)-N-(6-fluoro-3-(3-fluoro-4-(trifluoromethoxy)phenyl)imidazo[1,2-a]pyridin-2-yl)acetamide] and `O=C(Cc1cccc(Cl)c1)Nc1nc2ccc(F)cn2c1-c1cccc(Cl)c1` [Compound 300, 2-(3-chlorophenyl)-N-(3-(3-chlorophenyl)-6-fluoroimidazo[1,2-a]pyridin-2-yl)acetamide] cannot be ordered by EC50: under 500 nM for the first, under 500 nM for the second.

`O=C(Cc1ccc(Cl)cc1)Nc1nc2ccc(F)cn2c1-c1cccc(Cl)c1` [Compound 301, 2-(4-chlorophenyl)-N-(3-(3-chlorophenyl)-6-fluoroimidazo[1,2-a]pyridin-2-yl)acetamide] and `Cc1ccc2nc(NC(=O)Cc3ccc(F)cc3)c(-c3cccc(OC(F)(F)F)c3)n2n1` [Compound 306, 2-(4-fluorophenyl)-N-(6-methyl-3-(3-(trifluoromethoxy)phenyl)imidazo[1,2-b]pyridazin-2-yl)acetamide] cannot be ordered by EC50: under 500 nM for the first, under 500 nM for the second.

Compared with `O=C(CCC(F)(F)F)Nc1nc2ccc(F)cn2c1-c1ccc(OC(F)(F)F)c(F)c1` [Compound 303, 4,4,4-trifluoro-N-(6-fluoro-3-(3-fluoro-4-(trifluoromethoxy)phenyl)imidazo[1,2-a]pyridin-2-yl)butanamide], `CC1(CC(=O)Nc2nc3ccc(F)cn3c2-c2ccc(OC(F)(F)F)c(F)c2)CCCC1` [Compound 304, N-(6-fluoro-3-(3-fluoro-4-(trifluoromethoxy)phenyl)imidazo[1,2-a]pyridin-2-yl)-2-(1-methylcyclopentyl)acetamide] is lower in EC50: 500 to 3000 nM for the first, under 500 nM for the second.

`Cc1ccc2nc(NC(=O)CC(C)(C)C)c(-c3cccc(OC(F)(F)F)c3)n2n1` [Compound 305, 3,3-dimethyl-N-(6-methyl-3-(3-(trifluoromethoxy)phenyl)imidazo[1,2-b]pyridazin-2-yl)butanamide] was tested, and the EC50 was under 500 nM.
